This note sets out measurements from US12350310B2, “Treatment and prevention of nephrotoxin-induced kidney injuries” (Farsight Medical Technology (Shanghai) Co., Ltd., priority 2019, dated 2025).

“And” between values parts separate entries of the source, which are not always exact repeats. Equal values may be shown once. “Also recorded” adds a separate entry of the source.

For test [1], the system named is rhabdomyolysis-induced acute kidney injury. The experiment in a line: Rhabdomyolysis-induced (glycerine) acute kidney injury model in rats (Example 3). The conditions noted are these: Compound I 3 mg/kg IP at 6 h and 1 h prior to glycerine, kidneys after 48 h, Group 3, Mean (SEM). The format is in vivo, male SD rats. On the procedure:
The efficacy of Compound I in protection against rhabdomyolysis-induced acute kidney injury was tested in a model study in male SD rats. The acute kidney injury model was induced in the rats by bilateral intra-muscular injection of 50% Glycerine (at a dose volume of 10 ml/kg body weight, divided into two sites of injection at each limb). Glycerine induces physiological conditions which are closely associated with rhabdomyolysis, such as myoglobinuria, tubular necrosis, and renal vasoconstriction.
Three groups formed part of the study: sham, vehicle, and compound I. Except for the sham group, where no glycerine was injected, animals were dosed twice intraperitoneally with either Compound I or Vehicle: at 6 h and at 1 h prior to receiving the glycerine injection (see Table 3).
After 48 h, the animals were euthanized, and their right and left kidneys were fixed in formalin 10%. Each kidney was cut longitudinally into 2 halves, both placed in a cassette and processed in paraffin. Sections were cut and stained using Hematoxylin and Eosin (H&E). The kidney sections were examined and histopathological analysis and scoring was performed for tubular, endothelial, glomerular and tubulointerstitial damage based on scoring systems in the art (e.g. Khalid U. et al, Journal of Histology & Histopathology. Volume 3, Article 1. 2016). Tubular epithelial necrosis scoring was based on the total number of tubules in the outer stripe of the outer medulla (OSOM). Tubulointerstitial damage was scored as a total percentage of the entire tissue observed in the section. The scores of each parameter were also added to provide a total histopathological score.
Table 4 summarizes the histopathology scoring results for the test groups sham (Group 1), vehicle (Group 2) and compound I (Group 3). All data are presented as Mean±SEM. All treatment groups were compared to the sham group (Group 1) or to the vehicle group (Group 2) using Student's T-Test. A p value <0.05 is considered to represent a significant difference.

For test [2], the system named is gentamicin-induced acute kidney injury. Description: Gentamicin-induced acute kidney injury model in rats (Example 1). As to conditions: Compound I 3 mg/kg i.p. before gentamicin 100 mg/kg i.p. daily. The format is in vivo, male Wistar rats. Here is the method:
Efficacy of the compound of Compound I against gentamicin-induced acute kidney injury was tested in a model study with male Wistar rats (180-220 g) randomly grouped based on body weights. Three groups formed part of the study: control, vehicle, and compound I (see Table I). Except for the control group, gentamicin (100 mg/kg) was given by intraperitoneal injection for 10 consecutive days, once daily from Day 1 to Day 10. The first day of gentamicin injection was designated as Day 1 of the study.
The vehicle, or the Compound I formulated in the vehicle was administered intraperitoneally (i.p.) for 10 days, from Day 1 to Day 10 of the study (total 11 times). On initiation of the experiment (Day 1), Compound I (3 mg/kg) was administered by i.p. injection 6 h, and 1 h before the gentamicin injection. Thereafter, on Day 2 to Day 10, Compound I was administered once daily (3 mg/kg) 1 h prior to the gentamicin injection. Body weights of the rats were recorded daily. On the day 10, the animals were euthanized and blood sample was collected via cardiac punction. Serum was collected and stored at −80° C. for kidney function analysis of blood urea nitrogen (BUN) and creatinine.

For test [3] the test system is unchanged. Description: Gentamicin-induced acute kidney injury model in rats, pathology and dose response (Example 2). The format is in vivo. The conditions noted are these: Compound I 0.5, 3, 9 mg/kg i.p. Here is the method: A further study in rats was carried out essentially in analogy to the general study protocol described in Example 1, to further assess the efficacy and impact of Compound I against gentamicin-induced acute kidney injury and to test the dose response. The tissue pathology, as well as the additional biomarkers were assessed.
Five groups formed part of the study (See Table 2): control (Group 1), vehicle (Group 2), and animals receiving Compound I at doses of 0.5 mg/kg (Group 3), 3 mg/kg (Group 4) and 9 mg/kg (Group 5). Except for the control Group 1, gentamicin (100 mg/kg) was given by intraperitoneal injection for 10 consecutive days, once daily from Day 1 to Day 10.
The vehicle, or Compound I formulated in the vehicle was administered intraperitoneally (i.p.) for 10 days, from Day 1 to Day 10 of the study (total 11 times). On initiation of the experiment (Day 1), Compound I at the specified dose amounts was administered by i.p. injection 6 h, and 1 h before the gentamicin injection to the animals in groups 3, 4 and 5. Thereafter, on Day 2 to Day 10, Compound I was administered once daily at the specified dose to said study groups, approximately 1 h prior to the gentamicin injection. On day 10, the rats were euthanized. Blood samples were collected, and the kidney tissues (both left and right kidneys) of the rats were also taken for H&E staining. Histopathological evaluation was performed on the kidney sections using standard methods and scoring criteria in the art to assess the level of tissue damage caused by the gentamicin-induced acute kidney injury. The kidney sections were assessed and scored for: necrosis of renal tubules, tubular dilation, loss of tubular brush border, cast formation in the renal tubules, and interstitial inflammatory cell (neutrophil) infiltration. The scoring was performed on a scale of 0 to 4 (0=0% i.e. no observation, 1≤5%, 2=5-25%, 3=25-50%, 4≥50% i.e. extensive, severe, or widely visible damage) on both left and right kidney tissues. The scoring was accumulated to provide a total combined score.
Kidney function analysis based on blood urea nitrogen (BUN) and creatinine in the serum was performed. Assay in plasma for biomarkers NGAL (neutrophil gelatinase-associated lipocalin) and Kim-1 (kidney injury molecule-1) was also determined.

The mark [4] stands for this setting: especially G4 and G5, versus G2 vehicle.
Setting [5] is: gentamicin 100 mg/kg daily, Day 10, versus G2 vehicle.
The mark [6] stands for this setting: gentamicin 100 mg/kg daily, Day 10, versus Group 2 vehicle.

For `C/C=C/C[C@@H](C)[C@@H](O)[C@H]1C(=O)N[C@@H](CC)C(=O)N(C)[C@H](OCCN(C)C)C(=O)N(C)[C@@H](CC(C)C)C(=O)N[C@@H](C(C)C)C(=O)N(C)[C@@H](CC(C)C)C(=O)N[C@@H](C)C(=O)N[C@H](C)C(=O)N(C)[C@@H](CC(C)C)C(=O)N(C)[C@@H](CC(C)C)C(=O)N(C)[C@@H](C(C)C)C(=O)N1C` [Compound I, [(R)-2′ (2-dimethylaminoethoxy)-Sar]^3 cyclosporin A], in test [1], the “ED (Endothelial damage) score, Mean” value was 0.00 a.u; the “GD (Glomerular damage) score, Mean” value came out at 0.00 a.u; the “TD (Tubular Damage) score, Mean” value was 1.10±0.07 a.u. and 1.10## a.u. In test [1] (p<0.01 vs. vehicle), the “TID (Tubulointersititial damage) score, Mean” value was 1.15±0.08 a.u. and 1.15##** a.u; the “Total Histopathological Score, Mean” value is 2.15±0.08 a.u. and 2.15##** a.u. Moreover, in test [2] (Day 1-10, versus vehicle group), the “rate of body weight gain over the 10-day study period (FIG. 1A)” value is recorded as “faster rate of body weight gain”. In test [2] (Day 1 to Day 10, versus vehicle group), the “overall body-weight change from baseline measurement on Day 1 (FIG. 1B)” value is on record as “higher compared to the rats only treated with vehicle”. Besides, in test [2] (Day 10 serum), the “serum blood urea nitrogen (BUN) level at endpoint (FIG. 2)” value is given as “lower, compared to levels determined for the vehicle group; also recorded: comparable or similar levels as measured for the control group” and the “serum creatinine level at endpoint (FIG. 3)” value is on record as “lower, compared to levels determined for the vehicle group; also recorded: comparable or similar levels as measured for the control group”. Further, the “total acute kidney injury pathology scoring of kidney tissue (FIG. 4A)” value in test [3] (especially 3 and 9 mg/kg groups, gentamicin 100 mg/kg daily, Day 10, versus G2 vehicle) is “statistically significant impact in terms of generally reducing the severity of physical injury”. Further, in test [3] (setting [4]), the “KIM-1 biomarker level in plasma at endpoint (FIG. 7)” value is reported as “statistically relevant reduced levels” and the “NGAL biomarker level in plasma at endpoint (FIG. 8)” value is reported as “statistically relevant reduced levels”. Further, in test [3] (setting [5]), the “severity of neutrophil infiltration (FIG. 4B)” value is listed as “markedly reduced” and the “severity of tubular dilation (FIG. 4B)” value is “markedly reduced”. For the same compound, in test [3] (setting [6]), the “serum BUN level at endpoint (FIG. 6)” value is “lower” and the “serum creatinine level at endpoint (FIG. 5)” value is listed as “lower”.
